Results on 3 compounds are retold here after paper PMC12095047, “Transport of phenoxyacetic acid herbicides by PIN-FORMED auxin transporters” (Nature Plants, 2025).

Values joined by “and” are separate entries in the source; they are usually repeats but may differ in a detail not shown here. Equal entries are not always repeated. “Also recorded” adds a separate entry of the source. Where two headings read alike, the source gives them in different places.

For one series, the target named is T1, PIN8 N117A (Arabidopsis thaliana, UniProt Q9LFP6, N117A).
T1 construct: made in house
T1 sequence (Q9LFP6 whole entry N117A): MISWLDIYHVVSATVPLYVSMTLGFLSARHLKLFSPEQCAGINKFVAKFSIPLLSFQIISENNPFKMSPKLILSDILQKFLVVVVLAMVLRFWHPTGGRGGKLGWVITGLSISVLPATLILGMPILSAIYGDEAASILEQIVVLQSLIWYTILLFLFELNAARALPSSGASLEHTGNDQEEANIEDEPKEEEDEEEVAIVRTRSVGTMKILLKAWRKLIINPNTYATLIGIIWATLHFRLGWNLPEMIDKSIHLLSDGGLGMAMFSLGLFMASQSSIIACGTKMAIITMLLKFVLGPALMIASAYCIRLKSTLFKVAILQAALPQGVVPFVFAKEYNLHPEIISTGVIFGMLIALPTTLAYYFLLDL
Nature of the series: SSM electrophysiology peak current, PIN8 N117A proteoliposomes. It is filed as biochemical. Particulars: for current response / function of PIN8 N117A: N117A mutation; for Relative Peak Current of WT (%): replicates. Here is the method:
(§1) SSM, using a SURFE2R N1 from Nanion Technologies, was conducted as described. In brief, soy polar lipid mix (38% phosphatidyl choline, 30% phosphatidyl ethanolamine, 18% phosphatidyl inositol, 7% phosphatidic acid and 7% other soy lipids) and 1-palmitoyl-2-oleoyl-sn-glycero-3-phosphocholin were purchased from Avanti. Liposomes were prepared in Ringer solution without Ca^2+ (115 mM NaCl, 2.5 mM KCl, 1 mM NaHCO3, 10 mM HEPES pH7.4, 1 mM MgCl2) and homogenized using a Lipsofast (Avestin) with a […]. Triton X-100 was added to the liposomes to a final concentration of 1% (v/v). Protein was added to liposomes to a calculated lipid-to-protein ratio (LPR) of 10 unless stated otherwise. The detergent was removed using 400 mg ml^−1 Bio Beads (BioRad) overnight at 4 °C in a rotary shaker. Proteoliposomes were frozen in liquid nitrogen and kept at −80 °C until use. Proteoliposomes were diluted 1:5 in Ringer solution without Ca^2+, sonicated five times and then applied to the sensors by centrifugation (30 min, 3,000 g, 4 °C). Non-activating buffer was Ringer solution without Ca^2+ as described unless specified otherwise, and activating buffer contained the substrate of interest. In most instances we used a single-solution exchange experiment. In this case proteoliposomes, immobilized on the supported membrane, are kept in non-activating buffer as specified. At the beginning of the experiment the non-activating buffer is replaced with fresh identical non-activating buffer, and after 1 s, activating buffer (same buffer containing substrate) is added. After another second, the buffer is replaced with non-activating buffer again. Current response is recorded throughout the entire 3 s. For competition or inhibition, the respective compound was present in non-activating and activating solutions. Each experiment was performed on at least two individual sensors. On each sensor each measurement consists of three technical replicates where the mean is calculated. KD values were determined as described previously. Briefly, the binding current induced by 100 µM NPA was recorded in the presence of different concentrations of the substrate under investigation ranging between 0 µM and 1,000 µM present in the activating solution and the non-activating solution (Extended Data Fig. 5b). […] The maximum peak current was then plotted as a function of the concentration of the substrate under investigation and plotted against the degree of inhibition and fitted with a one-site binding model using GraphPad Prism V10.4.1 The half maximal concentration corresponds to the KD of the substrate under investigation.
The protocol for expression and purification of AtPIN8 protein (Uniprot: Q9LFP6) in lauryl maltose neopentyl glycol was described previously. All point mutants were generated using Q5 Site-Directed mutagenesis kit (New England Biolabs). The C-flat Holey Carbon grids (CF-1.2/1.3, Cu-300 mesh) were glow-discharged for 45 s at 15 mA in a GloQube Plus (Quorum). […] After 1 h of incubation on ice, the sample was centrifuged at 16,000 g for 15 min before blotting to remove precipitation. A drop of 4 µl of each sample was applied to the glow-discharged grids, blotted with a Vitrobot Mark IV (ThermoFisher Scientific) using the following settings (temperature 4 °C, 100% humidity, blot time of 4 s, blot force −1) and vitrified in liquid ethane.

The conditions of series [1]: cited from earlier work.
Series [2] deals with T2, wild-type PIN8 proteoliposomes (Arabidopsis thaliana, UniProt Q9LFP6).
T2 construct: made in house
T2 sequence (Q9LFP6 1-367): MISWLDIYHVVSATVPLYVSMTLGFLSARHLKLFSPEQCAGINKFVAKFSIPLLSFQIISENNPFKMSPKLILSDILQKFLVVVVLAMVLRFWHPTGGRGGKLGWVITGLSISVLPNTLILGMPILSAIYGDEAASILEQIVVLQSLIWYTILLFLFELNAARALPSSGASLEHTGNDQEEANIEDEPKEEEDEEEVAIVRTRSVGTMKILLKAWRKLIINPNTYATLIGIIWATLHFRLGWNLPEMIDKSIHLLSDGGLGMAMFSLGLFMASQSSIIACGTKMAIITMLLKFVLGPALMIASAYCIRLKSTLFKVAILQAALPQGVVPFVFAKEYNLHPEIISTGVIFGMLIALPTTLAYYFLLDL
Description: SSM electrophysiology, peak width (FWHM) of current response at LPR10 and LPR50. In kind it is biochemical. Particulars: for peak width of SSM-based current response as a function of lipid-to-protein ratio (LPR): LPR10 versus LPR50; for Rel. FWHM (% of LPR10): replicates. Here is the method:
as §1

A further series addresses T3, PIN8 Y150A (Arabidopsis thaliana, UniProt Q9LFP6, Y150A).
T3 construct: made in house
In kind it is biochemical. As to conditions: for Imax / EC50: PIN8 Y150A, Michaelis–Menten fit; for EC50: read-out: EC50 of peak current response; for Peak current: Y150A, individual sensors.

The next series addresses T4, PIN8 S55A/S146A (Arabidopsis thaliana, UniProt Q9LFP6, S146A/S55A).
T4 construct: made in house
In kind it is biochemical. Particulars: Michaelis–Menten fit; for EC50: read-out: EC50 of peak current response.

T3 sequence (Q9LFP6 whole entry Y150A): as the sequence (Q9LFP6 whole entry N117A) above, with A117N, Y150A counted along it
T4 sequence (Q9LFP6 whole entry S55A/S146A): as the sequence (Q9LFP6 whole entry N117A) above, with S55A, A117N, S146A counted along it

In general, EC50 refers to the concentration that produces a half-maximal response. Turning to `O=C(O)COc1ccc(Cl)cc1Cl` [2,4-D, 2,4-dichlorophenoxyacetic acid], the “current response / function of PIN8 N117A” value on PIN8 N117A is “abolishes the current response; also recorded: abolishes function”. In addition, the “Relative Peak Current of WT (%)” value at PIN8 N117A (Substrate 2,4-D, 2mM) is 22.8804% and 23.9685% and 24.9449% and 20.0988%; at PIN8 N117A (Substrate 2,4-D) it was 9.311% and 12.1121% and 13.3294% and 14.1031%. For the same compound, the “acid dissociation constant pKa” value in series [1] is recorded as 2.73. Further, the “peak width of SSM-based current response as a function of lipid-to-protein ratio (LPR)” value (from here on “peak width … of lipid-to-protein ratio (LPR)”) in series [2] is “vary with lipid-to-protein ratio (LPR)”. Moreover, the Imax worked out at 5 ± 1 nA at PIN8 Y150A and 9 ± 2 nA on PIN8 S55A/S146A. In addition, the results for the 50% effective concentration (EC50) on PIN8 Y150A and at PIN8 S55A/S146A were 684 ± 256 µM and 38 ± 6 µM, respectively. For the same compound, the Peak current at PIN8 Y150A (5 µM substrate) is 0.1509 nA and 0.05154 nA and 0.05368 nA and 0.1258 nA; at PIN8 Y150A (20 µM substrate), 0.08307 nA and 0.2336 nA and 0.2155 nA and 0.2901 nA; on PIN8 Y150A (50 µM substrate) it was 0.3395 nA and 0.5519 nA and 0.4679 nA and 0.5665 nA; at PIN8 Y150A (100 µM substrate), 0.6832 nA and 0.8682 nA and 0.7895 nA and 0.907 nA; on PIN8 Y150A (500 µM substrate), 2.171 nA and 2.337 nA and 2.071 nA and 2.343 nA; on PIN8 Y150A (1000 µM substrate), 3.151 nA and 3.173 nA and 2.762 nA and 3.101 nA. Besides, the Peak current on PIN8 Y150A (2000 µM substrate) was 4.437 nA and 4.148 nA and 3.583 nA and 4.038 nA.
With `O=C(O)COc1ccc(Cl)cc1` [4-CPA, 4-chlorophenoxyacetic acid], on PIN8 N117A, the “current response / function of PIN8 N117A” value is “abolishes the current response”. In addition, the “Relative Peak Current of WT (%)” value on PIN8 N117A (Substrate 4-CPA, 100µM) is 1.438% and 7.087% and 13.2919% and 50.142%; on PIN8 N117A (Substrate 4-CPA, 2mM), 17.5134% and 20.2019% and 18.4651% and 19.2453%. Further, the “Rel. FWHM (% of LPR10)” value in series [2] (LPR10) is 1.033 % of LPR10 and 0.9836 % of LPR10 (2×); in series [2] (LPR50), 1.475 % of LPR10 (2×) and 1.328 % of LPR10 and 1.377 % of LPR10. Moreover, the “peak width … of lipid-to-protein ratio (LPR)” value in series [2] is given as “vary with lipid-to-protein ratio (LPR)”. Further, the Imax at PIN8 Y150A stood at 5 ± 0.4 nA; at PIN8 S55A/S146A it was 11 ± 0.9 nA. The EC50 at PIN8 Y150A worked out at 2620 ± 263 µM; at PIN8 S55A/S146A it was 81 ± 3 µM. Also, the Peak current on PIN8 Y150A (5 µM substrate) is 0.004001 nA and 0.000964 nA and 0.005187 nA and 0.01098 nA; at PIN8 Y150A (20 µM substrate), 0.001883 nA and 0.005268 nA and 0.002512 nA and 0.004292 nA; at PIN8 Y150A (50 µM substrate), 0.02123 nA and 0.03866 nA and 0.02734 nA and 0.07514 nA; at PIN8 Y150A (100 µM substrate), 0.1072 nA and 0.1421 nA and 0.1118 nA and 0.1489 nA; on PIN8 Y150A (500 µM substrate), 0.7863 nA and 0.8129 nA and 0.8214 nA and 0.8974 nA; at PIN8 Y150A (1000 µM substrate), 1.36 nA and 1.41 nA and 1.338 nA and 1.516 nA. In addition, the Peak current at PIN8 Y150A (2000 µM substrate) is 2.1396 nA and 2.167 nA and 2.059 nA and 2.335 nA.
For `O=C(O)Cc1c[nH]c2ccccc12` [IAA, indole-3-acetic acid], the “Relative Peak Current of WT (%)” value on PIN8 N117A (Substrate IAA, 100µM) was 3.5397% and 5.375% and 9.48% and 13.4511%; on PIN8 N117A (Substrate IAA, 2mM), 11.8985% and 14.7068% and 17.3968% and 15.4928%. The “acid dissociation constant pKa” value in series [1] is 4.7. The “Rel. FWHM (% of LPR10)” value in series [2] (LPR10) was 1.043 % of LPR10 and 0.9783 % of LPR10 (2×); in series [2] (LPR50) it was 2.022 % of LPR10 (2×) and 1.957 % of LPR10. The “peak width … of lipid-to-protein ratio (LPR)” value in series [2] was “vary with lipid-to-protein ratio (LPR)”. Moreover, the Imax at PIN8 Y150A worked out at 4 ± 0.3 nA; at PIN8 S55A/S146A it was 7 ± 2 nA. Also, the EC50 came out at 1210 ± 298 µM at PIN8 Y150A and 341 ± 128 µM at PIN8 S55A/S146A. In addition, the Peak current on PIN8 Y150A (5 µM substrate) was 0.07393 nA and 0.1605 nA and 0.184 nA; at PIN8 Y150A (20 µM substrate), 0.162 nA and 0.2178 nA and 0.2518 nA; on PIN8 Y150A (50 µM substrate), 0.2702 nA and 0.3405 nA and 0.3285 nA; at PIN8 Y150A (100 µM substrate), 0.09437 nA and 0.3629 nA and 0.1017 nA; on PIN8 Y150A (500 µM substrate) it was 0.8668 nA and 1.165 nA and 0.6916 nA; on PIN8 Y150A (1000 µM substrate) it was 1.921 nA and 2.062 nA and 1.677 nA. Moreover, the Peak current on PIN8 Y150A (2000 µM substrate) is 2.244 nA and 2.472 nA and 1.95 nA.
